Measured values as given in BindingDB's records for patent US12570675 (LG Chem, 2026).

What was measured:
[1] = target: T1, Proteasome subunit beta type-5 (Homo sapiens, UniProt P28074); test: Proteasome Activity Inhibition
T1 sequence (P28074 whole entry): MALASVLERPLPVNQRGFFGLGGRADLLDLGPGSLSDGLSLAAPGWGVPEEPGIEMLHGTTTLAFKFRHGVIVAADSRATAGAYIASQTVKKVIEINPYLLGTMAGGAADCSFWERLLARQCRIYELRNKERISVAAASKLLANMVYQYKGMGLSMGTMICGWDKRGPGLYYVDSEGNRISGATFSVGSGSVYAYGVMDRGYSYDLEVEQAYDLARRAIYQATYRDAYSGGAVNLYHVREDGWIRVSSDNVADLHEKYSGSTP
Procedure: (§1) RPMI8226 cells, which is a multiple myeloma cell line, were cultured and then separated by a centrifuge, and washed twice with phosphate buffered saline (PBS). 20 mM of a tris-HCl (pH 8.0) buffer solution was added to the washed cells, and the cells were disrupted by a homogenizer and centrifuged to obtain S26 protein from the supernatant. Suc-Leu-Leu-Val-Tyr-AMC, for a fluorogenic substrate for the chymotrypsin-like activity of the proteasome, and Z-Leu-Leu-Glu-AMC, for a fluorogenic substrate for the caspase-like activity, were purchased from Calbiochem, EMD Millipore and used. Into each well of a 96-well plate (opaque, black round bottom), 20 ul of the S26 protein (final RPMI8226 cell extract concentration: 2 ug/well), 10 ul of S26 proteasome inhibitor serially diluted from 10 uM (final DMSO concentration: 0.5%), and 20 ul of the fluorogenic substrate for the proteasome chymotrypsin-like or caspase-like activity (final concentration: 20 uM) were added and mixed and allowed to react in a 37° C. incubator for 90 minutes. The fluorescence of the fluorogenic substrate was measured by FlexStation II Fluorometer (Molecular Devices). The fluorescence inhibited by the compound diluted at each concentration was measured as the relative percentage value for the amount obtained from the treatment only with the S26 protein and the fluorogenic substrate.

[2] = target: T2, Proteasome subunit beta type-6 (Homo sapiens, UniProt P28072); test: Proteasome Activity Inhibition
T2 sequence (P28072 whole entry): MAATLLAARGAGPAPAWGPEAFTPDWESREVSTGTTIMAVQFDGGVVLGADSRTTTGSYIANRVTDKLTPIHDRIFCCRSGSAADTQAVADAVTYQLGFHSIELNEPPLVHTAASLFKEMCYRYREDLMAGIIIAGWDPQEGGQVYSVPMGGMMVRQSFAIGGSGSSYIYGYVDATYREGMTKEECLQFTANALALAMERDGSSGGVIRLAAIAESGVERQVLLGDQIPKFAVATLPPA
Procedure: as §1

IC50 [1] [nM]	IC50 [2] [nM]	Structure (SMILES)
< 25	> 500	CC(C)C[C@H](NC(=O)C1CC(CNC(=O)C2CCCc3ccccc32)=NO1)B(O)O (stereo partly drawn) [US12570675, Example 80]
< 500	–	COc1ccc(Cl)cc1-c1cccc(C2=NOC(Cc3ccccc3)(C(=O)N[C@@H](CC(C)C)B(O)O)C2)c1 (stereo partly drawn) [US12570675, Example 35]
< 25	> 500	CC[C@H](NC(=O)C1(Cc2ccccc2)CC(CNC(=O)c2ccccc2)=NO1)B(O)O (stereo partly drawn) [US12570675, Example 293]
< 250	–	CC(C)C[C@H](NC(=O)C1CC(CNc2ccccn2)=NO1)B(O)O (stereo partly drawn) [US12570675, Example 60]
< 50	–	CC(C)C[C@H](NC(=O)C1CC(CNC(=O)C2Cc3ccccc3C2)=NO1)B(O)O (stereo partly drawn) [US12570675, Example 78]

Structure (SMILES)	IC50 [1] [nM]	IC50 [2] [nM]
CC(C)C[C@H](NC(=O)C1(Cc2ccccc2)CC(CNC(=O)c2cn(C(C)C)c3ccccc23)=NO1)B(O)O (stereo partly drawn) [US12570675, Example 209]	< 10	–
